The results in this text go back to patent US10774064B2 (Cadent Therapeutics, Inc., priority 2016, dated 2020).

In this assay the target is T1, small-conductance Ca2+-activated K+ channels (SK channels, subtype 2) (Homo sapiens, UniProt Q9H2S1).
T1 construct: expressed in transfected cells; host or cells: HEK293
Put plainly: whole-cell patch-clamp of ionic current through SK2 channels in HEK293 cells (SC100). Format: cell-based. The following applies: whole-cell patch-clamp, HEK293 cells expressing SK2 channels; concentration that increases the basal current by 100%. The method in brief:
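Whole-cell patch-clamp recording of current in HEK293 cells expressing SK2 channels. SC100 is the compound concentration that increases basal current by 100%.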
Turning to `Cc1cccc(-c2cc(CO)cc(NC3CCC(F)(F)CC3)n2)n1` [IN11111-063-P1, (6-((4,4-difluorocyclohexyl)amino)-6′-methyl-[2,2′-bipyridin]-4-yl)methanol], the “SC100 (μM)” value is “+ (+ means >1 uM)”. The result for `OCc1cc(NC2CCC(F)(F)CC2)nc(-n2ccc(C3CC3)n2)c1` [IN11111-092-P1] reads “++ (++ means 200 nM-1000 nM)”. With `Cc1ccn(-c2nc(NC3CCC(F)(F)CC3)cc(N3CCCOCC3)n2)n1` [IN11111-097-P1] the entry was “++ (++ means 200 nM-1000 nM)”; with `Cc1ccn(-c2nc(NC3CCC(F)(F)CC3)c(F)c(N3CCOCC3)n2)n1` [IN11111-100-P1, N-(4,4-difluorocyclohexyl)-5-fluoro-2-(3-methyl-1H-pyrazol-1-yl)-6-morpholinopyrimidin-4-amine], “++ (++ means 200 nM-1000 nM)”.

As to `CCOc1cc(NC2CCC(F)(F)CC2)nc(-n2nc(C)cc2C)n1` [IN11121-042-P1, N-(4,4-difluorocyclohexyl)-2-(3,5-dimethyl-1H-pyrazol-1-yl)-6-ethoxypyrimidin-4-amine], the “SC100 (μM)” value is listed as “+ (+ means >1 uM)”.

Consider `COc1c(NC2CCC(F)(F)CC2)nc(-c2nc(C)cs2)nc1N1CCOCC1` [IN11125-001-P1], for which the “SC100 (μM)” value is “+ (+ means >1 uM)”.

Consider `CNC(=O)Oc1c(NC2CCC(F)(F)CC2)nc(-c2nc(C)cs2)[nH]c1=O` [IN11125-006-P1, 4-((4,4-difluorocyclohexyl)amino)-6-hydroxy-2-(4-methylthiazol-2-yl)pyrimidin-5-yl methylcarbamate], for which the “SC100 (μM)” value is “+ (+ means >1 uM)”. The result for `COc1cc(C#N)cnc1OCc1cc(NC2CCC(F)(F)CC2)nc(-n2ccc(C)n2)c1` [IN11125-008-P1] reads “+++ (+++ means <200 nM)”.

For `COc1nc(-c2nc(C)cs2)nc(NC2CCC(F)(F)CC2)c1OC` [IN11125-010-P1], the “SC100 (μM)” value was “++ (++ means 200 nM-1000 nM)”. Consider `COCCOCc1cc(NC2CCC(F)(F)CC2)nc(-n2ccc(C)n2)c1` [IN11125-012-P1], for which the “SC100 (μM)” value is reported as “++ (++ means 200 nM-1000 nM)”. As to `Cc1csc(-c2nc(NC3CCC(F)(F)CC3)cc(OCc3ccon3)n2)n1` [IN11125-013-P1], the “SC100 (μM)” value is “++ (++ means 200 nM-1000 nM)”. Consider `COc1cnc(-c2nc(C)cs2)nc1NC1CCC(F)(F)CC1` [IN11125-014-P1, N-(4,4-difluorocyclohexyl)-5-methoxy-2-(4-methylthiazol-2-yl)pyrimidin-4-amine], for which the “SC100 (μM)” value was “++ (++ means 200 nM-1000 nM)”. The result for `COc1cc(NC2CCC(F)(F)C2)nc(-c2nc(C)cs2)n1` (centres unmarked) [IN11125-028-P1] reads “+ (+ means >1 uM)”. The result for `COC(=O)NCCOc1c(NC2CCC(F)(F)CC2)nc(-c2nc(C)cs2)nc1OC` [IN11125-052-P1, methyl (2-((4-((4,4-difluorocyclohexyl)amino)-6-methoxy-2-(4-methylthiazol-2-yl)pyrimidin-5-yl)oxy)ethyl)carbamate] reads “+ (+ means >1 uM)”; that for `COC(=O)NCCOc1c(NC2CCC(F)(F)CC2)nc(-c2nc(C)cs2)[nH]c1=O` [IN11125-065-P1, methyl (2-((4-((4,4-difluorocyclohexyl)amino)-6-hydroxy-2-(4-methylthiazol-2-yl)pyrimidin-5-yl)oxy)ethyl)carbamate], “+ (+ means >1 uM)”; that for `COc1nc(-c2nc(C)cs2)nc(NC2CCC(F)(F)CC2)c1OCc1cnco1` [IN11125-091-P1, N-(4,4-difluorocyclohexyl)-6-methoxy-2-(4-methylthiazol-2-yl)-5-(oxazol-5-ylmethoxy)pyrimidin-4-amine], “+ (+ means >1 uM)”. As for `Cc1csc(-c2ncc(O)c(NC3CCC(F)(F)CC3)n2)n1` [IN11125-095-P1, 4-((4,4-difluorocyclohexyl)amino)-2-(4-methylthiazol-2-yl)pyrimidin-5-ol], the “SC100 (μM)” value is “+ (+ means >1 uM)”. With `Cc1ccn(-c2cc3c(c(N4CCOCC4)n2)CCN3)n1` [IN11130-005-P1, 4-(6-(3-methyl-1H-pyrazol-1-yl)-2,3-dihydro-1H-pyrrolo[3,2-c]pyridin-4-yl)morpholine] the entry was “+ (+ means >1 uM)”.

As for `Cc1cccc(-c2nccc(NC3CCC(F)(F)CC3)n2)n1` [IN11130-030-P1, N-(4,4-difluorocyclohexyl)-2-(6-methylpyridin-2-yl)pyrimidin-4-amine], the “SC100 (μM)” value is “+ (+ means >1 uM)”. The result for `Cc1cccc(-c2nc(NC3CCC(F)(F)CC3)cc(OCc3cnco3)n2)n1` [IN11130-031-P2, N-(4,4-difluorocyclohexyl)-2-(6-methylpyridin-2-yl)-6-(oxazol-5-ylmethoxy)pyrimidin-4-amine] reads “+ (+ means >1 uM)”; that for `COC(=O)NCc1cc(NC2CCC(F)(F)CC2)nc(-c2nc(C)cs2)c1` [IN11130-047-P1], “+++ (+++ means <200 nM)”; that for `Cc1csc(-c2cc(C(C)O)cc(NC3CCC(F)(F)CC3)n2)n1` (centres unmarked) [IN11130-051-P1, 1-(2-((4,4-difluorocyclohexyl)amino)-6-(4-methylthiazol-2-yl)pyridin-4-yl) ethan-1-ol], “+++ (+++ means <200 nM)”. With `CC(=O)c1cc(NC2CCC(F)(F)CC2)nc(-c2nc(C)cs2)c1` [IN11130-053-P1, 1-(2-((4,4-difluorocyclohexyl)amino)-6-(4-methylthiazol-2-yl)pyridin-4-yl) ethan-1-one] the entry was “+++ (+++ means <200 nM)”. With `Cc1csc(-c2ncc(C)c(NC3CCC(F)(F)CC3)n2)n1` [IN11130-076-P1, N-(4,4-difluorocyclohexyl)-5-methyl-2-(4-methylthiazol-2-yl)pyrimidin-4-amine], the “SC100 (μM)” value is given as “+ (+ means >1 uM)”. For the compound `COC(=O)N1CC=C(c2cc(NC3CCC(F)(F)CC3)nc(-n3ccc(C)n3)c2)CC1` [IN11130-077-P1, methyl 2′-((4,4-difluorocyclohexyl)amino)-6′-(3-methyl-1H-pyrazol-1-yl)-3,6-dihydro-[4,4′-bipyridine]-1(2H)-carboxylate], the “SC100 (μM)” value is on record as “+ (+ means >1 uM)”.

`Cc1csc(-c2nc(NC3CCC(F)(F)CC3)cc(C(C)n3cccn3)n2)n1` (centres unmarked) [IN11133-002-P1, 6-(1-(1H-pyrazol-1-yl)ethyl)-N-(4,4-difluorocyclohexyl)-2-(4-methylthiazol-2-yl)pyrimidin-4-amine]: the “SC100 (μM)” value is recorded as “+ (+ means >1 uM)”. As for `COc1cc(NC2CC(F)(F)C2)nc(-c2nc(C)cs2)n1` [IN11133-014-P1], the “SC100 (μM)” value is “+ (+ means >1 uM)”. As for `Cc1csc(-c2nc(NC3CC(F)(F)C3)cc(OC3CCOCC3)n2)n1` [IN11133-020-P1, N-(3,3-difluorocyclobutyl)-2-(4-methylthiazol-2-yl)-6-((tetrahydro-2H-pyran-4-yl)oxy) pyrimidin-4-amine], the “SC100 (μM)” value is on record as “+ (+ means >1 uM)”. For `Cc1ccn(-c2nc(N[C@@H]3CCCC[C@H]3F)cc(N3CCOCC3)n2)n1` [IN11133-031-P1], the “SC100 (μM)” value is “+ (+ means >1 uM)”. With `Cc1csc(-c2cc(CNC=O)cc(NC3CCC(F)(F)CC3)n2)n1` [IN11133-037-P1] the entry was “+++ (+++ means <200 nM)”; with `Cc1csc(-c2cc(CN)cc(NC3CCC(F)(F)CC3)n2)n1` [IN11133-049-P1, 4-(aminomethyl)-N-(4,4-difluorocyclohexyl)-6-(4-methylthiazol-2-yl)pyridin-2-amine], “++ (++ means 200 nM-1000 nM)”; with `Cc1csc(-c2cc(COC(N)=O)cc(NC3CCC(F)(F)CC3)n2)n1` [IN11133-061-P1, (2-((4,4-difluorocyclohexyl)amino)-6-(4-methylthiazol-2-yl)pyridin-4-yl)methyl carbamate], “+++ (+++ means <200 nM)”. As to `CC(=O)N(C)Cc1cc(NC2CCC(F)(F)CC2)nc(-c2nc(C)cs2)c1` [IN11133-068-P1], the “SC100 (μM)” value is “++ (++ means 200 nM-1000 nM)”. For the compound `Cc1csc(-c2cc(CN(C)C=O)cc(NC3CCC(F)(F)CC3)n2)n1` [IN11133-069-P1], the “SC100 (μM)” value is “+++ (+++ means <200 nM)”.

As for `Cc1cc(NC2CCC(F)(F)CC2)nc(-n2ccc(OC(C)C)n2)n1` [IN11133-094-P1, N-(4,4-difluorocyclohexyl)-2-(3-isopropoxy-1H-pyrazol-1-yl)-6-methylpyrimidin-4-amine], the “SC100 (μM)” value is “+ (+ means >1 uM)”.

For `OCc1cc(NC2CCC(F)(F)CC2)nc(-n2ccc(C(F)(F)F)n2)c1` [IN11133-097-P1, (2-((4,4-difluorocyclohexyl)amino)-6-(3-(trifluoromethyl)-1H-pyrazol-1-yl)pyridin-4-yl) methanol], the “SC100 (μM)” value is reported as “++ (++ means 200 nM-1000 nM)”.

As to `COc1cc(NC2CCCSC2)nc(-c2nc(C)cs2)n1` (centres unmarked) [IN11137-018-P1], the “SC100 (μM)” value is recorded as “+ (+ means >1 uM)”. Take `Cc1cc(NC2CCC(F)(F)CC2)nc(-c2cccc(C)n2)c1` [IN11137-041-P1, N-(4,4-difluorocyclohexyl)-4,6′-dimethyl-[2,2′-bipyridin]-6-amine]: the “SC100 (μM)” value was “+ (+ means >1 uM)”.

For the compound `CCc1cc(NC2CCC(F)(F)CC2)nc(-n2ccc(C3CC3)n2)n1` [IN11137-072-P1, 2-(3-cyclopropyl-1H-pyrazol-1-yl)-N-(4,4-difluorocyclohexyl)-6-ethylpyrimidin-4-amine], the “SC100 (μM)” value is “++ (++ means 200 nM-1000 nM)”. The result for `OCc1cc(NC2CCC(F)(F)CC2)nc(-n2ccc(C3CC3)n2)n1` [IN11137-074-P1, (2-(3-cyclopropyl-1H-pyrazol-1-yl)-6-((4,4-difluorocyclohexyl)amino)pyrimidin-4-yl) methanol] reads “++ (++ means 200 nM-1000 nM)”; that for `NC(=O)OCc1cc(N(C(N)=O)C2CCC(F)(F)CC2)nc(-n2ccc(C3CC3)n2)n1` [IN11137-079-P1, (2-(3-cyclopropyl-1H-pyrazol-1-yl)-6-(1-(4,4-difluorocyclohexyl)ureido)pyrimidin-4-yl)methyl carbamate], “+ (+ means >1 uM)”.
